Entries after “also recorded” stand apart in the source; their conditions may differ.

The nature of data set [1]: 200 μL medium with five pre-germinated Arabidopsis (Ler) seedlings. Conditions: 22°C.
The subject of data set [2] is primary roots / root meristems (RMs) of Ler seedlings. The data set can be described thus: In vitro root assay in Ler seedlings. Format: in vivo, Arabidopsis. Conditions: for Concentration at which the peptide was active in the root assay (primary root length): Ler seedlings, 8-d inoculation, tested at 10 nM, 30 nM, 100 nM, 1 μM. As for the experimental part: (§1) Similarly, in vitro root assays were performed in Ler and clv2-1 (in Ler background) seedlings.
To evaluate activities of above-mentioned synthetic peptides with various N-terminal extensions, we performed in vitro root assays using Ler seedlings. The lengths of primary roots were measured after 8-d inoculations with either CLV3p12, L-CLV3p13, EEL-CLV3p15, HEEL-CLV3p16 or LHEEL-CLV3p17 at concentrations of 10 nM, 30 nM, 100 nM, or 1 μM (Figure 4).
(§2) Seeds of clv1-1, clv2-1 and clv3-2 (all in Ler background), Col-0 and Ler were gas-sterilized as reported previously, and imbibed in sterilized distilled water at 4°C in dark for 2 days before plating. In vitro root and SAM assays were performed as described.

The subject of data set [3] is shoot and root meristems (RMs). Particulars: synthetic peptides corresponding to the CLE motif; cited from earlier work. The source says: (§3) CLV3 is one of the well-studied peptide hormones in plants. The CLV3 gene encodes a 96-AA secretory protein that functions in a feedback regulation loop to restrict the number of stem cells in SAMs by repressing the expression of the WUSCHEL (WUS) transcription factor [16, 21]. […] CLV3 sh ...

For another data set, the system named is CLV1. Conditions: tobacco BY-2 cells; cited from earlier work.
Text: as §3

The nature of data set [4]: 200 μL liquid medium with five pre-germinated Ler seedlings (half-strength Murashige and Skoog, 1% sucrose, MES). Particulars: Arabidopsis thaliana (Ler), 22°C, up to 48 hrs.
Data set [5] relates to shoot apical meristems (SAMs) of clv3-2 seedlings. The data set is described as follows: In vitro SAM assay in clv3-2 seedlings. The data set is classed as in vivo, Arabidopsis. Particulars: for Sizes of SAMs of clv3-2 seedlings after treatment: 1 μM fusion protein, 8 days, 8-d-old clv3-2 seedlings, n = 8, P < 0.01 Student's t-test. On the procedure:
(§4) In vitro activity assays of the TH-ProCLV3 fusion protein in SAMs were performed using clv3-2 and clv1-1 (both in Ler background) mutants of Arabidopsis, as described previously.
as §2

For data set [6], the system named is roots / root meristems (RMs) of clv2-1 seedlings. The data set can be described thus: In vitro root assay in clv2-1 seedlings. Particulars: 1 μM TH-ProCLV3, 8-d-old clv2-1 seedlings, n = 8. The data set is classed as in vivo, Arabidopsis. As for the experimental part: as §1, §2
For a further data set, the system named is WUS expression. The data set can be described thus: qRT-PCR of WUS expression in shoot apices of clv3-2 seedlings. Format: in vivo, Arabidopsis. Particulars: 8-d-old clv3-2 seedlings, 1 μM fusion protein in liquid medium, normalised to EIF4A1, 3 independent biological repeats. As for the experimental part: To address if these fusion proteins are able to repress the WUS expression in SAMs, qRT-PCR analyses were performed with cDNAs from shoot apices after treatments with various fusion proteins. […] In contrast, the expression level of WUS in the TH-ProCLV3Leu69Ala-treated clv3-2 seedlings was only about 50% of the untreated ones (Figure 5F).
Total RNA was extracted using a Plant Total RNA Isolation Kit (TIANGEN, Beijing, China) from approximately 30 shoot apices excised from 8-d-old seedlings cultured in fusion protein-containing liquid media, and then reverse transcribed to cDNA with the First Strand cDNA Synthesis Kit ReverTra Ace-α (TOYOBO, Japan). qRT–PCR was performed in a Rotor-Gene 3000 thermocycler (Corbett, Australia) with the SYBR Premix ExTaq II kit (TaKaRa, Dalian, China), and the relative expression levels of the WUS [GenBank: NM_127349.3] were normalized against the internal control EIF4A1 [GenBank: NM_001084679.1] and calculated using the Rotor-Gene 6 software v 6.0 (Corbett, Australia) according to the 2^-∆∆CT method. Primer pairs of 5’-[…]-3’ and 5’-[…] -3’, and 5’-TTCTCTGCGACAATGCCTC-3’ and 5’-GCTTCCAGTCTTCTTTC TCCAC-3’ were used to amplify WUS and EIF4A1, respectively.
On the technique in general: In qPCR the cycle at which signal appears reflects the starting amount.

Data set [7] has as its system shoot apical meristems (SAMs) of clv1-1 seedlings. The data set can be described thus: In vitro SAM assay in clv1-1 seedlings. The data set is classed as in vivo, Arabidopsis. Particulars: 1 μM fusion protein, 8-d-old clv1-1 seedlings, n = 8. On the procedure: as §4
The commonly known subtilase recognition site is Lys/Arg-Arg. Although in most CLE members of Arabidopsis the residue located before the conserved Arg of the 12-AA CLE motif is Lys (Additional file 3), for CLV3 the residue is Leu. We examined if a Leu69Lys substitution hampered the activity of the fusion protein. TH-ProCLV3Leu69Lys was produced in E. coli and applied to clv3-2 seedlings in vitro.
as §2

Take RLSPGGPDPRHH: the fragment found result in data set [1] (up to 3 d) was “RLSPGGPDPRH; also recorded: RLSPGGPDPR; also recorded: LSPGGPDPRHH; also recorded: SPGGPDPRHH; also recorded: SPGGPDPR”.

As to EELRTVPSGPDPLHH, the cleaved bond entry in data set [1] (up to 3 d) is given as “H-H81”. For “RTVPSGPDPLHH [CLV3p12, chemically synthesized 12-AA CLV3 peptide corresponding to the CLE motif]”, the “Concentration at which the peptide was active in the root assay (primary root length)” value (“Concentration” for short) in data set [2] (n = 8) was 10 nM. The “Function in promoting stem cell differentiation in vitro” value in data set [3] was “functional in promoting stem cell differentiation in both shoot and root meristems”. Besides, the “Interaction with CLV1” value in the data set on CLV1 was “Direct interaction”.

“Trx-His-HAHVQGLSNRKMMMMMKMESEWVGANGEAEKAKTKGLGLHEELRTVPSGPDPLHHHVNPPRQPRNNFQLP”: the fragment found result in data set [4] is “RTVPSGPDPLHH (CLV3p12); also recorded: RTVPSGPDPLHHH (CLV3p13)”. “LHEELRTVPSGPDPLHH [LHEEL-CLV3p17, CLV3p12 with additional 5 N-terminal residues]”: the “Concentration” value in data set [2] (n = 8) is given as 10 nM. As to “Trx-His-HAHVQGLSNRKMMMMMKMESEWVGANGEAEKAKTKGLGLHEEARTVPSGPDPLHHHVNPPRQPRNNFQLP”, the fragment found entry in [4] was “CLV3p12 (RTVPSGPDPLHH); also recorded: CLV3p13 (RTVPSGPDPLHHH)”.

Turning to “Trx-His-HAHVQGLSNRKMMMMMKMESEWVGANGEAEKAKTKGLGLHEEKRTVPSGPDPLHHHVNPPRQPRNNFQLP”, the fragment found entry in data set [4] is reported as “MMMMKMESEWVGANGEAEKAKTKGLGLHEEK”. Regarding LHEEARTVPSGPDPLHH, the cleaved bond entry in data set [1] (up to 3 d) is reported as “H-H81”. Turning to “EELRTVPSGPDPLHH [EEL-CLV3p15, CLV3p12 with additional 3 N-terminal residues]”, the “Concentration” value in data set [2] (n = 8) was found to be 100 nM. Regarding LRTVPSGPDPLHH, the cleaved bond result in data set [1] (up to 3 d) is on record as “L69-R70; also recorded: R70-T71; also recorded: H-H81”. The same measure, in the same setting: to HEELRTVPSGPDPLHH belongs “Arg70-Thr71”. Take FNESMRLSPGGPDPRHH: in data set [1] (up to 3 d), the cleaved bond result is “Met-Arg, 3 d” and the fragment found result is “FNESMRLSPGGPDPRH; also recorded: FNESMRLSPGGPDPR; also recorded: FNESMRLSPGGPDP; also recorded: SMRLSPGGPDPR; also recorded: RLSPGGPDPR; also recorded: LSPGGPDPRHH; also recorded: SPGGPDPRHH; also recorded: SPGGPDPR”.

On to “MRLSPGGPDPRHH [M-CLE1p13, synthesized CLE1 peptide with 1 N-terminal flanking residue]”, for which the “Fold less active than CLE1p12 in restricting the sizes of SAMs” value in data set [5] (clv3-2 seedlings, 8-d incubation, 10 nM to 10 μM peptide, n = 16) is given as “about 100 fold”. For the molecule “Trx-His-HAHVQGLSNRKMMMMKMESEWVGANGEAEKAKTKGLGLHEELRTVPSGPDPLHHHVNPPRQPRNNFQLP”, the cleaved bond result in data set [1] (up to 48 hrs) is given as “K38-Met39, major”.

On to LHEELRTVPSGPDPLHH, for which, in [1] (up to 3 d), the cleaved bond result is listed as “Leu69-Arg70, 3 d; also recorded: Arg70-Thr71, 3 d; also recorded: H-H81, first_seen, 2 d”. Still for that read-out and setting: to RTVPSGPDPLHH belongs “R70-T71; also recorded: H-H81”.

B1: TH-ProCLV3: CLV3 proprotein without signal peptide, N-terminal Trx and His tags, produced in E. coli, 23.8 kD (protein, UniProt Q9XF04 22-96, looked up)
pro-form: SDLTQAHAHVQGLSNRKMMMMKMESEWVGANGEAEKAKTKGLGLHEELRTVPSGPDPLHHHVNPPRQPRNNFQLP
modifications: pro-form N-terminal thioredoxin and His tags
notes: CLV3 proprotein without signal peptide, N-terminal Trx and His tags, produced in E. coli, 23.8 kD
For the molecule B1, in [2] (1 μM TH-ProCLV3, 8-d-old Ler seedlings, n = 8), the “Root growth of Ler seedlings” value is reported as “inhibited greatly”. Besides, in data set [2] (1 μM TH-ProCLV3, Ler seedlings), the “Root meristem (RM) state in Ler, microscopic examination” value was “termination of RMs in Ler”. In addition, in data set [6], the “Root growth of clv2-1 seedlings” value is recorded as “no evident growth inhibition”. Besides, the “Expression level of WUS in shoot apices relative to non-treated clv3-2 seedlings” value with WUS expression is recorded as “about 10%”. Further, the “Sizes of SAMs of clv1-1 seedlings after treatment” value (from here on “Sizes of SAMs of clv1-1 seedlings”) in data set [7] was “no evident reduction; also recorded: no significant differences”. The “Sizes of SAMs of clv3-2 seedlings after treatment” value (from here on “Sizes of SAMs of clv3-2 seedlings”) in [5] is “significant reduced sizes of SAMs”.

B2: TH-ProCLV3Leu69Ala: TH-ProCLV3 fusion protein with Leu69Ala substitution, produced in E. coli (protein, UniProt Q9XF04 22-96, looked up, variant L69A)
pro-form: SDLTQAHAHVQGLSNRKMMMMKMESEWVGANGEAEKAKTKGLGLHEEARTVPSGPDPLHHHVNPPRQPRNNFQLP
modifications: pro-form N-terminal thioredoxin and His tags
notes: TH-ProCLV3 fusion protein with Leu69Ala substitution, produced in E. coli
As for B2, the “Expression level of WUS in shoot apices relative to non-treated clv3-2 seedlings” value in the data set with WUS expression is “about 50%”. Besides, in data set [7], the “Sizes of SAMs of clv1-1 seedlings” value is on record as “no significant differences”. The “Sizes of SAMs of clv3-2 seedlings” value in [5] is “significantly larger than those treated with TH-ProCLV3”.

B3: TH-ProCLV3Leu69Lys: TH-ProCLV3 fusion protein with Leu69Lys substitution, produced in E. coli (protein, UniProt Q9XF04 22-96, looked up, variant L69K)
pro-form: SDLTQAHAHVQGLSNRKMMMMKMESEWVGANGEAEKAKTKGLGLHEEKRTVPSGPDPLHHHVNPPRQPRNNFQLP
modifications: pro-form N-terminal thioredoxin and His tags
notes: TH-ProCLV3 fusion protein with Leu69Lys substitution, produced in E. coli
For the molecule B3, in data set [7], the “Sizes of SAMs of clv1-1 seedlings” value was “no significant differences”. The “Sizes of SAMs of clv3-2 seedlings” value in data set [5] is recorded as “no significant difference”.

Values taken from article PMC3878228 (BMC Plant Biology, 2013).
